Molecular target: T1, human IKK-β (Homo sapiens, UniProt O14920)
T1 construct: A cDNA fragment encoding human IKK-β open reading frame was generated by PCR; His tag (from pcDNA3.1/His C); made in house; host or cells: Sf21 insect cells (baculovirus); substrate made in E. coli
T1 sequence (O14920 1-756): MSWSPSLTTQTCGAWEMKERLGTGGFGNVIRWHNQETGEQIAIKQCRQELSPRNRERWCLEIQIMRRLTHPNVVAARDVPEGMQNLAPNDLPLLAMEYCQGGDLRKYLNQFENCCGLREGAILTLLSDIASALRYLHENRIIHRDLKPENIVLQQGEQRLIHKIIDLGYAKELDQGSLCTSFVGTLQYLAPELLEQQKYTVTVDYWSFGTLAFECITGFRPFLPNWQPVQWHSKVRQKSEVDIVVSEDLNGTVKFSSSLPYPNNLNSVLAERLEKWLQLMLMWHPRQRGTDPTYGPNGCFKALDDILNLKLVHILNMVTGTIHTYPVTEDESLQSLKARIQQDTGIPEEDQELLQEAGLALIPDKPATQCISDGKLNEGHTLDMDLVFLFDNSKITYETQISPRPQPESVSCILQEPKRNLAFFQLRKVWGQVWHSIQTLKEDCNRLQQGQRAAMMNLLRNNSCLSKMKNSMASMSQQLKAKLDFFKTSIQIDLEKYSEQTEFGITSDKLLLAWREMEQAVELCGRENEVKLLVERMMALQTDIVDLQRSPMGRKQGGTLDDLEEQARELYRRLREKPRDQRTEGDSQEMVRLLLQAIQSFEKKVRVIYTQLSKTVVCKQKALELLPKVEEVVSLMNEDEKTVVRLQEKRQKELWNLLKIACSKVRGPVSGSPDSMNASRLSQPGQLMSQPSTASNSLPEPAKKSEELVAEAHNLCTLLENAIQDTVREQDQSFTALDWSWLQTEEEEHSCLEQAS
Assay: IKK-β kinase inhibitory assay
Assay type: biochemical
Settings: compounds as yielded by solid phase synthesis, purity about 40 to 90%, read-out: In vitro activity grade (In vitro IC50)
Method in brief: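 Radiometric read-out: streptavidin capture of 33P-labelled bio-GST-IκBα(1-54), 0.2 μM, after a 2 h room-temperature reaction started with ATP/[γ-33P]ATP. Enzyme was recombinant His-tagged human IKK-β expressed in Sf21 insect cells, used at 0.6 μg/ml in Tris-HCl pH 7.6/MgCl2 kinase buffer. Compounds added in 2.5% DMSO.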

Row | Structure (SMILES) | IC50 [nM]
1 | CC(C)Oc1cccc(O)c1-c1cc(C2CCCNC2)c(C#N)c(N)n1 (stereo not drawn) [Example 2-54] | < 500
2 | CC(C)COc1cccc(O)c1-c1cc(C2CCCNC2)c(C#N)c(N)n1 (stereo not drawn) [Example 2-59] | < 500
3 | N#Cc1c(CCN)cc(-c2c(O)cccc2OCc2ccccc2)nc1N [Example 2-40] | < 500
4 | N#Cc1c(C2CCCNC2)cc(-c2c(O)cccc2OCc2ncon2)nc1N (stereo not drawn) [Example 2-48] | < 500
5 | N#Cc1c(C2CCCNC2)cc(-c2c(O)cccc2OCc2ccc(Cl)cc2Cl)nc1N (stereo not drawn) [Example 2-34] | < 500

Results, then the compound that gave them:

Row | IC50 [nM] | Structure (SMILES)
6 | < 500 | NC(=O)N1Cc2c(C3CCCNC3)cc(-c3c(O)cccc3OCC3CC3)nc2NC1=O (stereo not drawn) [Example 24-10]
7 | < 500 | CC(C)(C)COC(=O)NCc1c(C2CCCNC2)cc(-c2c(O)cccc2OCC2CC2)nc1N (stereo not drawn) [Example 23-10]
8 | < 500 | CCCOc1cccc(O)c1-c1cc(C2CCCNC2)c(CO)c(N)n1 (stereo not drawn) [Example 12-03]
9 | < 500 | CCCOc1cccc(O)c1-c1cc(C2CCNCC2)c(CO)c(N)n1 [Example 12-06]

— US6984649B1, “Pyridine derivatives” (Bayer Aktiengesellschaft, priority 2000, dated 2006)
